Key:
Format in all cases: cell-based
[1] = biological target: T1, hERG channels (Homo sapiens, UniProt Q12809); experiment: hERG screening assay (automated patch clamp, CHO crelox hERG cell line); conditions: CHO-hERG cells, whole-cell patch clamp at 35-37° C.
T1 construct: Evotec (cryopreserved) ATCC PTA-6812; host or cells: CHO (Chinese hamster ovary) cells
Excerpt: The CHO crelox hERG cell line (ATCC reference Nr. PTA-6812, female Chinese hamster cells) was generated and validated at Roche. Ready-to-use frozen instant CHO-hERG cells were cryopreserved at Evotec (Germany) and used directly in the experiments.
The extracellular solution contains (in mM): NaCl 150; KCl 4; CaCl2) 1; MgCl2 1; HEPES 10; pH 7.2-7.4 with NaOH, osmolarity 290-330 mOsm. The internal solution contains (in mM): KCl, 10; KF, 100; NaCl, 10; HEPES, 10; EGTA, 20; pH=7.0-7.4 with KOH, osmolarity 260-300 mOsm.
The effects of a compound on hERG K+-currents parameters will be evaluated at 2 concentrations in at least 4 cells.
The hERG test is performed using automated patch clamp system SynchroPatch® 384 (Nanion Technologies GmbH, Germany). K+ currents are measured with the patch-voltage-clamp technique in the whole-cell configuration at 35-37° C.
Cells were held at a resting voltage of −80 mV and they were stimulated by a voltage pattern shown in FIG. 1 to activate hERG channels and conduct outward IKhERG current, at a stimulation frequency of 0.1 Hz (6 bpm)
The amplitudes of IKhERG were recorded in each concentration of drug and they were compared to the vehicle control values (taken as 100%) to define fractional blocks. The concentration-response data were fitted with the following relationship: […]

[2] = biological target: T2, NLRP3 (Homo sapiens, UniProt Q96P20); experiment: THP-1 cells pyroptosis assay (LPS priming, nigericin, resazurin read-out); set-up: Seed THP-1 cells (25,000 cells/well) containing 1.0 μg/ml LPS; host or cells: THP-1 cells; conditions: 1.0 μg/ml LPS, 5 μM nigericin
T2 sequence (Q96P20 whole entry): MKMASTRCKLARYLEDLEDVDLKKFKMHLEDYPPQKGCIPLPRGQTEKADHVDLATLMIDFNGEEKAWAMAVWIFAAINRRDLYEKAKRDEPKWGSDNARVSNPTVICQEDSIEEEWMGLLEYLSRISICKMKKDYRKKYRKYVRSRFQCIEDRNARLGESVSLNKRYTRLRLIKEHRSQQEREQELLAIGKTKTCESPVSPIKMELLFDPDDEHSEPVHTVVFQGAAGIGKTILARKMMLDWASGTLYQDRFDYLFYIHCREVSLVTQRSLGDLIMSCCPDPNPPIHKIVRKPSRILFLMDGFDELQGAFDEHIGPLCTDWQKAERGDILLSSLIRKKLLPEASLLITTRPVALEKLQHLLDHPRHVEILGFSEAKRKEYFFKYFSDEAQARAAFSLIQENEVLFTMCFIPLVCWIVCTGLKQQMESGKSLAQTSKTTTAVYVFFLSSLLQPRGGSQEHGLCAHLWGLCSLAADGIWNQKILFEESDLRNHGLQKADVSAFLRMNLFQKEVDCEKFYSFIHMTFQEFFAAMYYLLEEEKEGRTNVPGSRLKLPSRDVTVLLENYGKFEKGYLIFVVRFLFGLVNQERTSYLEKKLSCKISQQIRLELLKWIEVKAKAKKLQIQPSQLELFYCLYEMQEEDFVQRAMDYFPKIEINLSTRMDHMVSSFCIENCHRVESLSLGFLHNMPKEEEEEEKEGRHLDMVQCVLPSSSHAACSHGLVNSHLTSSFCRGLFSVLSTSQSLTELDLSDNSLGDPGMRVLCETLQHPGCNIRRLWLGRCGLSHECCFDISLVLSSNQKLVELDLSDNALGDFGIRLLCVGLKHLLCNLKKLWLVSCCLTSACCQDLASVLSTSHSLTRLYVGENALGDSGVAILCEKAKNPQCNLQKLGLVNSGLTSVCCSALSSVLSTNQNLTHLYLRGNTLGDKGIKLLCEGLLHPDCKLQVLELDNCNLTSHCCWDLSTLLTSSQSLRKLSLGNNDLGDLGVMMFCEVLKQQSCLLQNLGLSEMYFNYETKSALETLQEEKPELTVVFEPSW
Experimental: THP-1 cells (ATCC #TIB-202) were grown in RPMI containing L-glutamine (Gibco #11835) supplemented with 1 mM sodium pyruvate (Sigma #S8636) and penicillin (100 units/ml)/streptomycin (0.1 mg/ml) (Sigma #P4333) in 10% Fetal Bovine Serum (FBS) (Sigma #F0804). The cells were routinely passaged and grown to confluency (˜10^6 cells/ml). On the day of the experiment, THP-1 cells were harvested and resuspended into RPMI medium (without FBS). The cells were then counted and viability (>90%) checked by Trypan blue (Sigma #T8154). Appropriate dilutions were made to give a concentration of 625,000 cells/ml. To this diluted cell solution was added LPS (Sigma #L4524) to give a lug/ml Final Assay Concentration (FAC). 40 μl of the final preparation was aliquoted into each well of a 96-well plate. The plate thus prepared was used for compound screening.
The following method step-by-step assay was followed for compound screening. • 1. Seed THP-1 cells (25,000 cells/well) containing 1.0 μg/ml LPS in 40 μl of RPMI medium (without FBS) in 96-well, black walled, clear bottom cell culture plates coated with poly-D-lysine (VWR #734-0317) • 2. Add 5 μl compound (8 points half-log dilution, with 10 μM top dose) or vehicle (DMSO 0.1% FAC) to the appropriate wells • 3. Incubate for 3 hours at 37° C., 5% CO2 • 4. Add 5 μl nigericin (Sigma #N7143) (FAC 5 μM) to all wells • 5. Incubate for 1 hr at 37° C., 5% CO2 • 6. At the end of the incubation period, spin plates at 300×g for 3 mins and remove supernatant • 7. Then add 50 μl of resazurin (Sigma #R7017) (FAC 100 μM resazurin in RPMI medium without FBS) and incubate plates for a further 1-2 hours at 37° C. and 5% CO2 • 8. Plates were read in an Envision reader at Ex 560 nm and Em 590 nm • 9. IC50 data is fitted to a non-linear regression equation (log inhibitor vs response-variable slope 4-parameters)

[3] = biological target: T2, NLRP3; experiment: Human whole blood IL-1β release assay (LPS, nigericin, AlphaLisa); set-up: Human whole blood in Li-heparin tubes was obtained from healthy donors; from tissue; host or cells: human whole blood from healthy donors; conditions: 10 μM nigericin
Experimental: For systemic delivery, the ability to inhibit NLRP3 when the compounds are present within the bloodstream is of great importance. For this reason, the NLRP3 inhibitory activity of a number of compounds in human whole blood was investigated in accordance with the following protocol.
Human whole blood in Li-heparin tubes was obtained from healthy donors from a volunteer donor panel. • 1. Plate out 80 μl of whole blood containing lug/ml of LPS in 96-well, clear bottom cell culture plate (Corning #3585) • 2. Add 10 μl compound (8 points half-log dilution with 10 μM top dose) or vehicle (DMSO 0.1% FAC) to the appropriate wells • 3. Incubate for 3 hours at 37° C., 5% CO2 • 4. Add 10 μl nigericin (Sigma #N7143) (10 μM FAC) to all wells • 5. Incubate for 1 hr at 37° C., 5% CO2 • 6. At the end of the incubation period, spin plates at 300×g for 5 mins to pellet cells and remove 20 μl of supernatant and add to 96-well v-bottom plates for IL-1β analysis (note: these plates containing the supernatants can be stored at −80° C. to be analysed at a later date) • 7. IL-1β was measured according to the manufacturer protocol (Perkin Elmer-AlphaLisa IL-1 Kit AL220F-5000) • 8. IC50 data is fitted to a non-linear regression equation (log inhibitor vs response-variable slope 4-parameters)

T1 sequence (Q12809 whole entry): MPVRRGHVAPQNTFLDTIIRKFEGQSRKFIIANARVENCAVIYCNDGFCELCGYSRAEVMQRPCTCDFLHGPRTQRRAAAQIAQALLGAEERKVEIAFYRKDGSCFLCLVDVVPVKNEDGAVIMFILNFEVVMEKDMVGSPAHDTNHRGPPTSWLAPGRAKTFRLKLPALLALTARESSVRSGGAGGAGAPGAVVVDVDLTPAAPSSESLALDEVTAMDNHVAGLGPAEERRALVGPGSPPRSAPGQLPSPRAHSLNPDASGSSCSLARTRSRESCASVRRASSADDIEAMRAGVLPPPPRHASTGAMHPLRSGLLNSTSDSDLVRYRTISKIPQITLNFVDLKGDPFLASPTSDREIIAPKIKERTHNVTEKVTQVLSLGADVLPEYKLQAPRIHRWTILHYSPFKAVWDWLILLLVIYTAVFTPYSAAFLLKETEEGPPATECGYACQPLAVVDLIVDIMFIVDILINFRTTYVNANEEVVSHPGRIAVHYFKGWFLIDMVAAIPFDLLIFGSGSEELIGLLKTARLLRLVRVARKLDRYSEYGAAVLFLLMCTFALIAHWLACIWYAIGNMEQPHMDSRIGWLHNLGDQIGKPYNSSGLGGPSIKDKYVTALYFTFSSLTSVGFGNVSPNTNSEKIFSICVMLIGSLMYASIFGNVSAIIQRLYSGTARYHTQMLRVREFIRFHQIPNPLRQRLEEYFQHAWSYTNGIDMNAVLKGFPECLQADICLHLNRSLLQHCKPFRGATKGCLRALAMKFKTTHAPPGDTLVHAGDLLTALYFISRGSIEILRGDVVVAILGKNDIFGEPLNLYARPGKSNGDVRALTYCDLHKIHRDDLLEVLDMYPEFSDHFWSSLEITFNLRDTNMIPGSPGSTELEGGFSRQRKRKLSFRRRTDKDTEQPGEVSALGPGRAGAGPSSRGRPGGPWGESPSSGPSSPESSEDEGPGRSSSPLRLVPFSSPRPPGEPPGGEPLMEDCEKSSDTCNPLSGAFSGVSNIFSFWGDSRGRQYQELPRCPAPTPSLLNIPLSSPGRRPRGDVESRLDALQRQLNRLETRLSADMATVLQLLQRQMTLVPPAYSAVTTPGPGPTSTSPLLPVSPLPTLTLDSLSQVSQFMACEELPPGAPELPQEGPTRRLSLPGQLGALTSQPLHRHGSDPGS

SMILES	IC50 [2]	IC50 [3]	IC50 [1]
CCN1CCC[C@@H](Nc2nnc(-c3ccc4c(c3O)CCO4)c(C)n2)C1 [Example 7, 5-[3-[[(3R)-1-Ethyl-3-piperidyl]amino]-5-methyl-1,2,4-triazin-6-yl]-2,3-dihydrobenzofuran-4-ol]	1.1 nM	3.7 nM	> 20000 nM
Cc1nc(N[C@@H]2CCCNC2)nnc1-c1ccc(C(F)(F)F)cc1O [Example 17, 2-[5-Methyl-3-[[(3R)-3-piperidyl]amino]-1,2,4-triazin-6-yl]-5-(trifluoromethyl) phenol]	13.4 nM	46.5 nM	
CCN1CCC[C@@H](Nc2nnc(-c3ccc4c(c3O)CCC4)c(C)n2)C1 [Example 25, 5-[3-[[(3R)-1-Ethyl-3-piperidyl]amino]-5-methyl-1,2,4-triazin-6-yl]indan-4-ol]	0.7 nM	6.3 nM	
CCN1C[C@@H](O)C[C@@H](Nc2nnc(-c3ccc(C(F)(F)F)cc3O)c(C)n2)C1 [Example 23, (3S,5R)-1-Ethyl-5-[[6-[2-hydroxy-4-(trifluoromethyl)phenyl]-5-methyl-1,2,4-triazin-3-yl]amino]piperidin-3-ol]	40.1 nM	40.5 nM	
Cc1nc(N[C@H]2C[C@@](C)(O)C2)nnc1-c1ccc(C(F)(F)F)cc1O [Example 3, 2-[3-[(3-Hydroxy-3-methyl-cyclobutyl)amino]-5-methyl-1,2,4-triazin-6-yl]-5-(trifluoromethyl) phenol]	107 nM	191 nM	

Further lines, with some results ahead:

IC50 [2]	IC50 [3]	SMILES	IC50 [1]
1.7 nM	5.4 nM	CCN1CCC[C@@H](Nc2nnc(-c3ccc(C(F)(F)F)cc3O)c(C)n2)C1 [Example 4, 2-[3-[[(3R)-1-Ethyl-3-piperidyl]amino]-5-methyl-1,2,4-triazin-6-yl]-5-(trifluoromethyl) phenol]	> 10000 nM
1.5 nM	13.2 nM	Cc1nc(N[C@@H]2CCCN(C)C2)nnc1-c1ccc(Cl)cc1O [Example 16, 5-Chloro-2-[5-methyl-3-[[(3R)-1-methyl-3-piperidyl]amino]-1,2,4-triazin-6-yl]phenol]	
1.3 nM	3.8 nM	CCN1CCC[C@@H](Nc2nnc(-c3ccc(Cl)cc3O)c(C)n2)C1 [Example 5, 5-Chloro-2-[3-[[(3R)-1-ethyl-3-piperidyl]amino]-5-methyl-1,2,4-triazin-6-yl]phenol]	
